How the values were obtained:
[1] = system: HEK293 cells; assay: Preliminary screening as mRNA vectors, EGFP mRNA transfection of HEK293 cells; assay type: cell-based; settings: HEK293 cells, 96-well plates, EGFP mRNA 50 ng per well; percentage of GFP fluorescent cells relative to total number of cells (Hoechst)
In short: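 HEK293 cells in DMEM plus 10% FBS transfected in 96-well format with 50 ng EGFP mRNA per well; Lipofectamine2000 served as positive control. Read-out is the percentage of GFP-fluorescent cells among total cells, counted by Hoechst nuclear stain.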

[2] = system: HEK293 cells; assay: Preliminary screening as DNA vectors, GFP transfection of HEK293 cells; assay type: cell-based; settings: HEK293 cells; lipid/DOPE liposome with 75 ng plasmid DNA (psin-EGFP-IRES-Puro); number of cells expressing GFP divided by total number of nuclei (Hoechst)
In short: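 HEK293 cells in DMEM/10% FBS transfected with 75 ng EGFP plasmid per well complexed with amino lipid/DOPE liposomes in pH 5.6 sodium acetate. Hoechst nuclear stain added 20-24 h post-transfection, then cells cultured another 20-24 h. Confocal imaging gives GFP-positive cells as % of total nuclei.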

SMILES: CCCCCCCCCCCCCCCCCCNc1nc(NCCCCCCC)nc(NCCN2CCN(C)CC2)n1 [Compound N7N18D5]
- Absolute mRNA transfection efficiency in HEK293 cells [1]: 0.1%
- Absolute DNA transfection efficiency in HEK293 cells [2]: 0.7%

SMILES: CCCCCCCCCCCNc1nc(NCCCCCCCC)nc(NCCN2CCOCC2)n1 [Compound N8N11D2]
- Absolute mRNA transfection efficiency in HEK293 cells [1]: 0.0%
- Absolute DNA transfection efficiency in HEK293 cells [2]: 0.0%

SMILES: CCCCCCCCCCCCCCCCCCNc1nc(NCCCCCCCCCCCCCCCC)nc(NCCN(C)C)n1 [Compound N16N18D1]
- Absolute mRNA transfection efficiency in HEK293 cells [1]: 0.0%
- Absolute DNA transfection efficiency in HEK293 cells [2]: 1.2%

SMILES: CCCCCCCCCCCCCCCCCCSc1nc(NCCN(CC)CC)nc(SCCCCCCCCCCCCCC)n1 [Compound S14S18D7]
- Absolute mRNA transfection efficiency in HEK293 cells [1]: 2.7%
- Absolute DNA transfection efficiency in HEK293 cells [2]: 0.9%

SMILES: CCCCCCCCCCCCCCCCNc1nc(NCCCCCCCCCCC)nc(NCCCN2CCOCC2)n1 [Compound N11N16D8]
- Absolute mRNA transfection efficiency in HEK293 cells [1]: 0.4%
- Absolute DNA transfection efficiency in HEK293 cells [2]: 0.0%

SMILES: CCCCCCCCNc1nc(NCCCCCC)nc(NCC2CCN(C)CC2)n1 [Compound N6N8D10]
- Absolute mRNA transfection efficiency in HEK293 cells [1]: 0.0%
- Absolute DNA transfection efficiency in HEK293 cells [2]: 0.0%

SMILES: CCCCCCCCCCCCCCCCCCNc1nc(NCCCCCCCCCCCC)nc(NCCN2CCCC2)n1 [Compound N12N18D3]
- Absolute mRNA transfection efficiency in HEK293 cells [1]: 13.4%
- Absolute DNA transfection efficiency in HEK293 cells [2]: 3.5%

SMILES: CCCCCCCCCCCCCCCNc1nc(NCCCCCCC)nc(NCCN2CCCC2)n1 [Compound N7N15D3]
- Absolute mRNA transfection efficiency in HEK293 cells [1]: 3.8%
- Absolute DNA transfection efficiency in HEK293 cells [2]: 5.2%

SMILES: CCCCCCCCCCCCN(CCCCCCCCCCCC)c1nc(NCCCCCCCC)nc(NCCN(CC)CC)n1 [N8^2N12D7]
- Absolute mRNA transfection efficiency in HEK293 cells [1]: 0.0%
- Absolute DNA transfection efficiency in HEK293 cells [2]: 0.0%

SMILES: CCCCCCCCCCCCCCCCCCSc1nc(NCCCN(C)C)nc(SCCCCCCCC)n1 [Compound S8S18D6]
- Absolute mRNA transfection efficiency in HEK293 cells [1]: 19.1%
- Absolute DNA transfection efficiency in HEK293 cells [2]: 8.2%

SMILES: CCCCCCCCCCCCCCCCCCSc1nc(NCCCN2CCOCC2)nc(SCCCCCCCCC)n1 [Compound S9S18D8]
- Absolute mRNA transfection efficiency in HEK293 cells [1]: 12.4%
- Absolute DNA transfection efficiency in HEK293 cells [2]: 27.0%

SMILES: CCCCCCCCCCCCCCCCCCNc1nc(NCCCCCCC)nc(NCCCN2CCN(C)CC2)n1 [Compound N7N18D9]
- Absolute mRNA transfection efficiency in HEK293 cells [1]: 0.5%
- Absolute DNA transfection efficiency in HEK293 cells [2]: 2.1%

SMILES: CCCCCCCCCCSc1nc(NCCN2CCCCC2)nc(SCCCCCCCCCC)n1 [Compound S10S10D4]
- Absolute mRNA transfection efficiency in HEK293 cells [1]: 2.5%
- Absolute DNA transfection efficiency in HEK293 cells [2]: 5.5%

SMILES: CCCCCCCCCCCCNc1nc(NCCCCCCCCCCC)nc(NCCN2CCCCC2)n1 [Compound N11N12D4]
- Absolute mRNA transfection efficiency in HEK293 cells [1]: 1.2%
- Absolute DNA transfection efficiency in HEK293 cells [2]: 0.0%

SMILES: CCCCCCCNc1nc(NCCCCCCC)nc(NCCN2CCCCC2)n1 [Compound N7N7D4]
- Absolute mRNA transfection efficiency in HEK293 cells [1]: 0.0%
- Absolute DNA transfection efficiency in HEK293 cells [2]: 0.0%

SMILES: CCCCCCCCCCCSc1nc(NCCCN2CCN(C)CC2)nc(SCCCCCCCCCC)n1 [Compound S10S11D9]
- Absolute mRNA transfection efficiency in HEK293 cells [1]: 60.6%
- Absolute DNA transfection efficiency in HEK293 cells [2]: 13.6%

SMILES: CCCCCCCCCCCCCCCNc1nc(NCCCCCCC)nc(NCCCN(C)C)n1 [Compound N7N15D6]
- Absolute mRNA transfection efficiency in HEK293 cells [1]: 1.2%
- Absolute DNA transfection efficiency in HEK293 cells [2]: 1.6%

SMILES: CCCCCCCCCCCCCCCNc1nc(NCCCCCCCCCCCCCCC)nc(NCCCN2CCOCC2)n1 [Compound N15N15D8]
- Absolute mRNA transfection efficiency in HEK293 cells [1]: 0.0%
- Absolute DNA transfection efficiency in HEK293 cells [2]: 0.0%

SMILES: CCCCCCCCCCCCCCCCSc1nc(NCC2CCN(C)CC2)nc(SCCCCCCCCCCCC)n1 [Compound S12S16D10]
- Absolute mRNA transfection efficiency in HEK293 cells [1]: 13.2%
- Absolute DNA transfection efficiency in HEK293 cells [2]: 7.3%

SMILES: CCCCCCCCCCCSc1nc(NCCCN(C)C)nc(SCCCCCCCCCCC)n1 [Compound S11S11D6]
- Absolute mRNA transfection efficiency in HEK293 cells [1]: 25.4%
- Absolute DNA transfection efficiency in HEK293 cells [2]: 10.9%

SMILES: CCCCCCCCCCSc1nc(NCCCN2CCN(C)CC2)nc(SCCCCCCCCC)n1 [Compound S9S10D9]
- Absolute mRNA transfection efficiency in HEK293 cells [1]: 46.6%
- Absolute DNA transfection efficiency in HEK293 cells [2]: 34.1%

SMILES: CCCCCCCCCNc1nc(NCCCCCCCC)nc(NCCN2CCN(C)CC2)n1 [Compound N8N9D5]
- Absolute mRNA transfection efficiency in HEK293 cells [1]: 0.0%
- Absolute DNA transfection efficiency in HEK293 cells [2]: 0.0%

SMILES: CCCCCCCCCCCCCCCCCCSc1nc(NCC2CCN(C)CC2)nc(SCCCCCCCCCCCCCCCC)n1 [Compound S16S18D10]
- Absolute mRNA transfection efficiency in HEK293 cells [1]: 3.0%
- Absolute DNA transfection efficiency in HEK293 cells [2]: 0.8%

SMILES: CCCCCCNc1nc(NCCCCCC)nc(NCCN2CCCC2)n1 [Compound N6N6D3]
- Absolute mRNA transfection efficiency in HEK293 cells [1]: 0.3%
- Absolute DNA transfection efficiency in HEK293 cells [2]: 0.2%

SMILES: CCCCCCCCCCCCCCCCCCNc1nc(NCCCCCCCCC)nc(NCCCN2CCN(C)CC2)n1 [Compound N9N18D9]
- Absolute mRNA transfection efficiency in HEK293 cells [1]: 3.1%
- Absolute DNA transfection efficiency in HEK293 cells [2]: 0.3%

SMILES: CCCCCCCCCCSc1nc(NCCN2CCN(C)CC2)nc(SCCCCCCCCCC)n1 [Compound S10S10D5]
- Absolute mRNA transfection efficiency in HEK293 cells [1]: 45.9%
- Absolute DNA transfection efficiency in HEK293 cells [2]: 14.7%

SMILES: CCCCCCCCCCCCCCCSc1nc(NCCN2CCCC2)nc(SCCCCCCCCCC)n1 [Compound S10S15D3]
- Absolute mRNA transfection efficiency in HEK293 cells [1]: 19.6%
- Absolute DNA transfection efficiency in HEK293 cells [2]: 7.6%

SMILES: CCCCCCCCCCCCCCCCCCNc1nc(NCCCCCCCCCCC)nc(NCCN2CCCC2)n1 [Compound N11N18D3]
- Absolute mRNA transfection efficiency in HEK293 cells [1]: 2.8%
- Absolute DNA transfection efficiency in HEK293 cells [2]: 0.6%

SMILES: CCCCCCCCCCCSc1nc(NCCN2CCOCC2)nc(SCCCCCCCCC)n1 [Compound S9S11D2]
- Absolute mRNA transfection efficiency in HEK293 cells [1]: 3.3%
- Absolute DNA transfection efficiency in HEK293 cells [2]: 17.3%

SMILES: CCCCCCCCCCCCCCCCCCNc1nc(NCCCCCCCCCCCCCCCCCC)nc(NCCN2CCN(C)CC2)n1 [Compound N18N18D5]
- Absolute mRNA transfection efficiency in HEK293 cells [1]: 0.0%
- Absolute DNA transfection efficiency in HEK293 cells [2]: 1.1%

SMILES: CCCCCCCCCCCCCCCCNc1nc(NCCCCCCCCCCC)nc(NCCN2CCCCC2)n1 [Compound N11N16D4]
- Absolute mRNA transfection efficiency in HEK293 cells [1]: 0.0%
- Absolute DNA transfection efficiency in HEK293 cells [2]: 0.1%

SMILES: CCCCCCCCCCCCCCCSc1nc(NCC2CCN(C)CC2)nc(SCCCCCCCCCCCC)n1 [Compound S12S15D10]
- Absolute mRNA transfection efficiency in HEK293 cells [1]: 43.1%
- Absolute DNA transfection efficiency in HEK293 cells [2]: 9.9%

SMILES: CCCCCCCNc1nc(NCCCCCC)nc(NCCN(C)C)n1 [Compound N6N7D1]
- Absolute mRNA transfection efficiency in HEK293 cells [1]: 0.1%
- Absolute DNA transfection efficiency in HEK293 cells [2]: 0.0%

SMILES: CCCCCCCCCCCCCCCCCCNc1nc(NCCCCCCCCCCCCCCC)nc(NCCN2CCCC2)n1 [Compound N15N18D3]
- Absolute mRNA transfection efficiency in HEK293 cells [1]: 8.6%
- Absolute DNA transfection efficiency in HEK293 cells [2]: 3.0%

SMILES: CCCCCCCCCCCCCCCCCCSc1nc(NCCN2CCOCC2)nc(SCCCCCCCCCCC)n1 [Compound S11S18D2]
- Absolute mRNA transfection efficiency in HEK293 cells [1]: 0.1%
- Absolute DNA transfection efficiency in HEK293 cells [2]: 0.2%

SMILES: CCCCCCCCCCCCN(CCCCCCCCCCCC)c1nc(NCCCCCC)nc(NCCN2CCN(C)CC2)n1 [N6^2N12D5]
- Absolute mRNA transfection efficiency in HEK293 cells [1]: 0.0%
- Absolute DNA transfection efficiency in HEK293 cells [2]: 0.2%

SMILES: CCCCCCCCCNc1nc(NCCCCCCCCC)nc(NCCCN2CCOCC2)n1 [Compound N9N9D8]
- Absolute mRNA transfection efficiency in HEK293 cells [1]: 0.6%
- Absolute DNA transfection efficiency in HEK293 cells [2]: 0.0%

Reference: patent US20230123334A1, “AMINO LIPID COMPOUND, PREPARATION METHOD THEREFOR, AND APPLICATION THEREOF” (SHENZHEN SHENXIN BIOTECHNOLOGY CO., LTD., priority 2020, published 2023)
